Test results from the NIST ThermoML archive (doi:10.1021/je9006234).
Numbers after ± are expanded uncertainties.

Conditions: 298.15 K; 101.33 kPa; Liquid

| Structure (SMILES) | mass density |
| --- | --- |
| c1ccncc1 [pyridine] | 978.25 ± 0.27 kg/m3 |
| c1ccc2ncccc2c1 [quinoline] | 1089.45 ± 0.31 kg/m3 |
| c1cc[nH]c1 [pyrrole] | 965.9 ± 2.9 kg/m3 |
| CN(C)C=O [dimethylformamide] | 944.21 ± 0.23 kg/m3 |
| Nc1ccccc1 [aniline] | 1017.42 ± 0.19 kg/m3 |
| CCCCCCCCCCCCCCCC [hexadecane] | 773.19 ± 0.32 kg/m3 |
| c1ccc2[nH]ccc2c1 [1H-indole] | 1216.68 ± 1.3 kg/m3 |
